The results in this text go back to ChEMBL document CHEMBL1125330, “N-substituted pyrazino[2,3-c][1,2,6]thiadiazine 2,2-dioxides. A new class of diuretics” (J Med Chem, 1992).

Molecules are shown by their SMILES.

For this series, the species on record is Rattus norvegicus. As to the kind of experiment: Mean sodium excretion in rats (Control/Drug treatment value); value 0.42/0.65. In kind it is ADME, organism-based. The following applies: in vivo.

On to `CCCc1nc2c(nc1C)C(N)=NS(=O)(=O)N2CC`, for which the Na was 1.5.
